Laboratory results as given in patent US20030198611A1, “Method of treating onychomycosis with urea and an antioxidant” (Bradley Pharmaceuticals, Inc., priority 2002, published 2003).

Test system: fungi
Assay: antifungal potency of urea compared with known antifungal agents
Details: no method or data given

NC(N)=O [urea]
antifungal potency relative to known antifungal agents: equal potency to known antifungal agents
